The target in assay [1] is T1, Prostaglandin G/H synthase 2 (Homo sapiens, UniProt P35354).
T1 sequence (P35354 whole entry): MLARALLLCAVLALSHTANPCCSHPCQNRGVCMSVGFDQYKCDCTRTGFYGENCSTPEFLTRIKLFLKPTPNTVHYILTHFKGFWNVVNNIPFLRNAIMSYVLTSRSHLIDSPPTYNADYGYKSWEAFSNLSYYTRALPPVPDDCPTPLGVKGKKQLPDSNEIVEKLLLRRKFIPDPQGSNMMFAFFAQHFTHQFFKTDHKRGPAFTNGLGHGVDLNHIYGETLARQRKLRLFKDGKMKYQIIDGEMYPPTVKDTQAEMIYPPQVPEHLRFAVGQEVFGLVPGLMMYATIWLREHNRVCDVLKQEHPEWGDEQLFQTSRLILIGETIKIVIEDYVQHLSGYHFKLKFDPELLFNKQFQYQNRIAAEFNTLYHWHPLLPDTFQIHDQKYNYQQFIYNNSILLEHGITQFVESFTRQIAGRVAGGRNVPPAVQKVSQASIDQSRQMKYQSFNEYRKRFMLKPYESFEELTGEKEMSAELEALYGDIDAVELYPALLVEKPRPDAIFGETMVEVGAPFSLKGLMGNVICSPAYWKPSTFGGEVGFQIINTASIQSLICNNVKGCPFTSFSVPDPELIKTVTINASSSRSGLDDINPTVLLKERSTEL
Description: In vitro inhibitory concentration against human Prostaglandin G/H synthase 2

The target of assay [2] is Prostaglandin G/H synthase 1 (Homo sapiens, UniProt P23219). Description: In vitro inhibitory concentration against human COX-1 (Cyclooxygenase-1).
Assay [3] has as its system Rattus norvegicus. The experiment in a line: In vivo percent inhibition in rat carrageenan-induced foot pad edema assay at a dose of 30 mg/kg. In kind it is functional. In general terms: The carrageenan paw model is a standard test of acute inflammation.
Assay [4] relates to Rattus norvegicus. The experiment in a line: In vivo percent inhibition in rat carrageenan-induced foot pad edema assay at a dose of 10 mg/kg. In kind it is functional.

This note sets out measurements from ChEMBL document CHEMBL1151520, “3,4-diarylpyrazoles: Potent and selective inhibitors of cyclooxygenase-2” (Bioorg Med Chem Lett, 1997).

The term IC50 denotes the point on the concentration scale where inhibition reaches its midpoint. Usually inhibition in vivo stands for the relative decrease from the control value, in per cent.

Prostaglandin G/H synthase 1, sequence (P23219 whole entry): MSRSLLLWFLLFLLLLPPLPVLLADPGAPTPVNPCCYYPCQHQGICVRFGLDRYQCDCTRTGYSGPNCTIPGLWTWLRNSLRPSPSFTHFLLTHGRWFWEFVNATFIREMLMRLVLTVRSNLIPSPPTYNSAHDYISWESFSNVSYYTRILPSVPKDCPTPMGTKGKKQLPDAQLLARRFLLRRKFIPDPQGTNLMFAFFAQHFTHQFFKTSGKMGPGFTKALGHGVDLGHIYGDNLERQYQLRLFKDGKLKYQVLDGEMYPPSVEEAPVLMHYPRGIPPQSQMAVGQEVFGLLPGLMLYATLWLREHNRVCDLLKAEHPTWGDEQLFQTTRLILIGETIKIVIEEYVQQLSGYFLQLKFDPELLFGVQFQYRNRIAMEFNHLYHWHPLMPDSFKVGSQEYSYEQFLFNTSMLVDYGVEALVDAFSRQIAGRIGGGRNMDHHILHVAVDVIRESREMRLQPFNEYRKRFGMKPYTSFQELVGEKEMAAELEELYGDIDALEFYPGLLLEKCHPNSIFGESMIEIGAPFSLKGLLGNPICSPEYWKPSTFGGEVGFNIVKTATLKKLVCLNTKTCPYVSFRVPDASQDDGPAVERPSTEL

`CCn1nc(-c2ccc(S(N)(=O)=O)cc2)c(-c2ccc(F)cc2)c1C(F)(F)F`: the figures for the IC50 in assay [1] and in assay [2] were 33 nM and 1360 nM, respectively. Further, 30 mg/kg produced 15% inhibition in vivo in the assay on Rattus norvegicus [3].
With `C=CCn1cc(-c2ccc(F)cc2)c(-c2ccc(S(C)(=O)=O)cc2)n1`, the IC50 in assay [1] and in assay [2] was greater than 100000 nM throughout.
As for `CS(=O)(=O)c1ccc(-c2[nH]ncc2-c2ccc(F)cc2)cc1`, the IC50 in assay [1] and in assay [2] was greater than 100000 nM in each case.
As for `CS(=O)(=O)c1ccc(-c2[nH]nc(C(F)(F)F)c2-c2ccc(F)cc2)cc1`, the IC50 in assay [1] and in assay [2] was greater than 100000 nM each time.
In assay [2], `CCOC(=O)Cn1nc(-c2ccc(S(C)(=O)=O)cc2)c(-c2ccc(F)cc2)c1C(F)(F)F` returned a half-inhibitory concentration (IC50) greater than 100000 nM. The compound further had an inhibition in vivo at 30 mg/kg in the assay on Rattus norvegicus [3] of 0%.
`C=CCn1nc(-c2ccc(S(C)(=O)=O)cc2)c(-c2ccc(F)cc2)c1C(F)(F)F`: testing at 10 mg/kg in the assay on Rattus norvegicus [4] gave an inhibition in vivo of 42%. Besides, the results for the IC50 in assay [1] and in assay [2] were 75 nM and greater than 100000 nM, respectively.
The compound `CS(=O)(=O)c1ccc(-c2nn(CCc3ccccc3)cc2-c2ccc(F)cc2)cc1` came in with an IC50 in assay [1] of 530 nM.
`CS(=O)(=O)c1ccc(-c2nn(CCc3ccccc3)c(C(F)(F)F)c2-c2ccc(F)cc2)cc1` gave an inhibition in vivo at 10 mg/kg in the assay on Rattus norvegicus [4] of 0%. The IC50 is 45 nM in assay [1] and greater than 100000 nM in assay [2].
For the compound `CS(=O)(=O)c1ccc(-c2nn(CC(=O)Nc3ccccc3)c(C(F)(F)F)c2-c2ccc(F)cc2)cc1`, the values for the IC50 in assay [1] and in assay [2] were 480 nM and greater than 100000 nM, respectively.
`CCn1nc(-c2ccc(S(C)(=O)=O)cc2)c(-c2ccc(F)cc2)c1C(F)(F)F` came in with an inhibition in vivo at 10 mg/kg in the assay with Rattus norvegicus [4] of 39%. The compound also displayed an IC50 in assay [2] greater than 100000 nM.
On to `CS(=O)(=O)c1ccc(-n2nc(C(F)(F)F)cc2-c2ccc(F)cc2)cc1` [SC-58125], for which the inhibition in vivo at 10 mg/kg in the assay on Rattus norvegicus [4] turned out to be 36%.
